Source: the supplement of paper PMC10307832

Legend:
Assay in all cases: relative viability (nuclei count vs DMSO), 5 days (fraction); higher = more cells survive
Linsitinib + Pictilisib = compound: C[C@]1(O)C[C@@H](c2nc(-c3ccc4ccc(-c5ccccc5)nc4c3)c3c(N)nccn32)C1 [Linsitinib] + CS(=O)(=O)N1CCN(Cc2cc3nc(-c4cccc5[nH]ncc45)nc(N4CCOCC4)c3s2)CC1 [Pictilisib] (partner 1 µM)
Summary of the method: (§1)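 Relative viability was taken as the ratio of nuclei in treated wells to nuclei in vehicle wells. Lung cancer cell lines in 1536-well plates received compounds by pin tool one day after seeding, either one drug alone or a fixed anchor-drug dose plus five library-drug doses (not always all listed) in √10 steps. Nuclei were counted on 4× images after 5 days of treatment, and values are medians of duplicate plates.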

Ispinesib + OSI-027 = compound: Cc1ccc(C(=O)N(CCCN)[C@@H](c2nc3cc(Cl)ccc3c(=O)n2Cc2ccccc2)C(C)C)cc1 [Ispinesib] + COc1cccc2cc(-c3nc([C@H]4CC[C@H](C(=O)O)CC4)n4ncnc(N)c34)[nH]c12 [OSI-027] (partner 0.5 µM)
Summary of the method: as §1

Ispinesib + Crizotinib = compound: Cc1ccc(C(=O)N(CCCN)[C@@H](c2nc3cc(Cl)ccc3c(=O)n2Cc2ccccc2)C(C)C)cc1 [Ispinesib] + C[C@@H](Oc1cc(-c2cnn(C3CCNCC3)c2)cnc1N)c1c(Cl)ccc(F)c1Cl [Crizotinib] (partner 1 µM)
Summary of the method: as §1

Ispinesib + Tozasertib = compound: Cc1ccc(C(=O)N(CCCN)[C@@H](c2nc3cc(Cl)ccc3c(=O)n2Cc2ccccc2)C(C)C)cc1 [Ispinesib] + Cc1cc(Nc2cc(N3CCN(C)CC3)nc(Sc3ccc(NC(=O)C4CC4)cc3)n2)n[nH]1 [Tozasertib] (partner 0.1 µM)
Summary of the method: as §1

Cell Line: UMC-11
- relative viability (Linsitinib + Pictilisib; first compound 0.01 µM): 0.786
- relative viability (Linsitinib + Pictilisib; first compound 0.03162 µM): 0.735
- relative viability (Linsitinib + Pictilisib; first compound 0.1 µM): 0.834
- relative viability (Linsitinib + Pictilisib; first compound 1 µM): 0.691
- relative viability (Ispinesib + OSI-027; first compound 0.001 µM): 0.484
- relative viability (Ispinesib + OSI-027; first compound 0.003162 µM): 0.429
- relative viability (Ispinesib + OSI-027; first compound 0.01 µM): 0.445
- relative viability (Ispinesib + OSI-027; first compound 0.03162 µM): 0.219
- relative viability (Ispinesib + OSI-027; first compound 0.1 µM): 0.239
- relative viability (Ispinesib + Crizotinib; first compound 0.001 µM): 0.547
- relative viability (Ispinesib + Crizotinib; first compound 0.003162 µM): 0.636
- relative viability (Ispinesib + Crizotinib; first compound 0.01 µM): 0.394
- relative viability (Ispinesib + Crizotinib; first compound 0.03162 µM): 0.192
- relative viability (Ispinesib + Crizotinib; first compound 0.1 µM): 0.376
- relative viability (Ispinesib + Tozasertib; first compound 0.001 µM): 0.201
- relative viability (Ispinesib + Tozasertib; first compound 0.003162 µM): 0.201
- relative viability (Ispinesib + Tozasertib; first compound 0.01 µM): 0.212
- relative viability (Ispinesib + Tozasertib; first compound 0.03162 µM): 0.189
- relative viability (Ispinesib + Tozasertib; first compound 0.1 µM): 0.205
